Results on two molecules are retold here after ChEMBL document CHEMBL1135014, “Synthesis, radiolabeling and preliminary biological evaluation of radiolabeled 5-methyl-6-nitroquipazine, a potential radioligand for the serotonin transporter” (Bioorg Med Chem Lett, 2002).

Usually Kd stands for the concentration at which binding is half-saturated. Read a low Kd as higher affinity.

The target in test [1] is Sodium-dependent serotonin transporter (Rattus norvegicus) (UniProt P31652). Nature of the test: Enzyme kinetic constant, Bmax was evaluated against Serotonin transporter.
Test [2] addresses Sodium-dependent serotonin transporter (Rattus norvegicus, UniProt P31652). Nature of the test: Binding affinity of the radio labeled [3H]5-Methyl-6-nitroquipazine compound against Serotonin transporter in rat frontal cortex homogenates. It counts as tissue-based.

Chain of Sodium-dependent serotonin transporter (Rattus norvegicus) (P31652 whole entry): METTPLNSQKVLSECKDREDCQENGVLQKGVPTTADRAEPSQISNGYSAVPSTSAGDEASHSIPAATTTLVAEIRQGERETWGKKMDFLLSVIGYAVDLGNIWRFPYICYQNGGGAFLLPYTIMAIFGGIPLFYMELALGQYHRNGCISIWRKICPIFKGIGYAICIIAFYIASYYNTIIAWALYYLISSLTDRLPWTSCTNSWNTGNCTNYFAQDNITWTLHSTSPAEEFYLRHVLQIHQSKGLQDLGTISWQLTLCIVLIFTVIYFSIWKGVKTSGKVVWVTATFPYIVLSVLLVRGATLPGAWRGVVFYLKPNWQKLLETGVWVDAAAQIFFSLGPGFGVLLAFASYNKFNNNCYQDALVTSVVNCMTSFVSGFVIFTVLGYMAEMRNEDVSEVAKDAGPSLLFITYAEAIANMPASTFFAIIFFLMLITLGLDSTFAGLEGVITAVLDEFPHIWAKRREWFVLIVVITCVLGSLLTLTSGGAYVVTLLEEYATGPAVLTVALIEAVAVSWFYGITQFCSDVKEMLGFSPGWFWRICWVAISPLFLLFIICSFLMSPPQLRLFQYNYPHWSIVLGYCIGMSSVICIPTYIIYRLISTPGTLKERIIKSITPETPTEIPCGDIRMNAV
Chain of Sodium-dependent serotonin transporter (P31652 whole entry): as above

In turn, `Cc1c([N+](=O)[O-])ccc2nc(N3CCNCC3)ccc12` returned a Bmax in test [1] of 1530 fmol/mg. The Kd in test [2] was 51 pM.

`O=[N+]([O-])c1ccc2nc(N3CCNCC3)ccc2c1` [6-NITROQUIPAZINE] yielded a Bmax in test [1] of 1530 fmol/mg. For the same molecule, the Kd in test [2] came to 51 pM.
